Test results reported in patent US20260150837A1, “GLUCAN DERIVATIVES FOR MICROBIAL CONTROL” (Nutrition & Biosciences USA 4, Inc., priority 2021, published 2026).

Tested on: Escherichia coli ATCC 25922
Assay: ASTM E3160-18 antibacterial efficacy of treated fabric, with ASTM E3162-18 wash durability
Format: cell-based
Settings: cotton, use level 250-2000 ppm by row; for AM Activity after 25 Real Time Washes: after 25 real time washes (ASTM-E3162-18); for Initial AM Activity: before washing
Procedure: (Procedure 1A) Exhaust Method: Alpha-1,6-glucan ether compounds (e.g., as prepared in Materials/Methods) were exhaust-applied using Werner Mathis AG BFA-12 exhaust equipment. Individual formulation baths comprising desired concentrations of a glucan ether polymer in water were prepared. Each fabric sample (20 g) was loosely folded horizontally and placed into a test canister, followed by addition of 200 ml of a bath solution. The canisters were then closed and secured to the rotating wheel of the equipment. The rotation speed of the wheel was set to 35 rpm, switching from clockwise to counterclockwise modes at 1-minute intervals. In each case, the instrument, with the samples already loaded, would first heat up at a selected rate of heating until the target temperature was reached, maintaining the temperature for preset durations, before cooling down to initial temperature. Once the exhaustion process was complete, all the fabric samples were removed from the exhaust canisters and passed through padding equipment (Fanyuan Instruments, DW2010A) set to a pressure of 8.4 kg to squeeze out the excess water. Lastly, each sample was dried in a MATHIS lab dryer LTE for 5 minutes at 120° C.
(Procedure 1B) Padding Method: Alpha-1,6-glucan ether compounds (e.g., as prepared in Materials/Methods) were also applied to fabric samples via a padding process using a MATHIS HF or Fanyuan Instruments (DW2010A) padder. Dry fabric was submerged into a bath containing an aqueous solution of glucan ether compound at a desired concentration in water and passed through padder rollers to squeeze out (applied pressure equaled 3.1 bar) excess treatment solution. Each fabric sample was dried and cured in a MATHIS lab dryer LTE for 5 minutes at 120° C. Each glucan solution was prepared to account for water weight pick-up by each fabric type and their exhaust potential.
(Procedure 2A) ASTM E3160-18: In some cases, an alpha-1,6-glucan ether compound herein was considered to be antimicrobially efficient if it imparted a >3 log10 reduction of bacterial growth as tested by the American Society for Testing and Materials (ASTM) method E3160-18 (Quantitative Evaluation of the Antibacterial Properties of Porous Antibacterial Treated Articles, incorporated herein by reference) at a use level ≤5000 ppm. The ASTM E3160 method was performed as follows: The day before the test, a culture of Escherichia coli of the American Type Culture Collection (ATCC) 25922 was inoculated by transferring a single colony from tryptic soy agar (TSA), using a sterile loop, into a tryptic soy broth (TSB). On the day of the experiment (next day), each fabric sample (treated with an alpha-1,6-glucan ether herein or a control compound, e.g., prepared by Procedure 1A above) was cut into three 0.40-g swatches (about 1×1 inch). Each fabric swatch was placed into a 50-mL sterile specimen cup. On the same day, bacterial/working inoculum was prepared by diluting the overnight culture of E. coli into phosphate buffer supplemented with TSB (1:500) and 0.05% TRITON X-100 to obtain a bacterial concentration that was between 2.5×10^5 colony forming units (CFU)/mL and 1.0×10^6 CFU/mL, with a target concentration of 6×10^5 CFU/mL. All samples were inoculated by applying 0.2 mL of working inoculum in several aliquots directly onto the fabric surface, and were allowed to incubate for 24 hours at 37° C. Samples were neutralized with 10 mL Dey-Engley (D-E) neutralizing buffer and enumerated in triplicate in 96-well plates containing 180 μL TSB by transferring 20 μL of neutralized sample to the top well of the 96-well plates and serially diluting 20 μL down the plate.

Row | SMILES | AM Activity after 25 Real Time Washes [log10 log10 reduction] | Initial AM Activity [log10 log10 reduction]
1 | CCCCCCCCCCCC[N+](C)(C)C.[Cl-] [Comparative 7, dodecyltrimethylammonium chloride] | <1 | 5
2 | CCCCCCCCCCCC(=O)N[C@@H](CCCNC(=N)N)C(=O)OCC [Comparative 5, Lauroyl arginine ethyl ester] | <1 | 5
3 | CCCCCCCCCCCC[N+](C)(C)CC(O)CCl.[Cl-] (centres unmarked) [Comparative 6, 3-chloro-2-hydroxypropyl dodecyldimethylammonium chloride] | <2 | 5
4 | CCCCCCCCCCCCCCCCCC[N+](C)(C)CCC[Si](O)(O)O.[Cl-] [Comparative 3, 3-(trihydroxysilyl)propyldimethyl-octadecyl ammonium chloride] | <1 | 5
